Consider 2 compounds from ChEMBL document CHEMBL5678818, “Discovery of potent SOS1 inhibitors that block RAS activation via disruption of the RAS-SOS1 interaction” (Proc Natl Acad Sci U S A, 2019).

In experiment [1] the test system is Receptor-type tyrosine-protein kinase FLT3 (Homo sapiens), P36888 [D835V]. Kind of experiment: Inhibition of FLT3 D835V mutant (unknown origin) assessed as residual activity at 1000 nM by KINOMEscan analysis relative to control.
In experiment [2] the test system is Epidermal growth factor receptor (Homo sapiens), P00533 [UNDEFINED MUTATION]. Kind of experiment: Inhibition of EGFR L747-E749del/A750P mutant (unknown origin) assessed as residual activity at 100 nM by KINOMEscan analysis relative to control.
In experiment [3] the target is Tyrosine-protein kinase Lyn (Homo sapiens) (UniProt P07948). Kind of experiment: Inhibition of LYN (unknown origin) assessed as residual activity at 100 nM by KINOMEscan analysis relative to control.
Tyrosine-protein kinase Lyn (Homo sapiens), sequence (P07948 2-512 limits assumed): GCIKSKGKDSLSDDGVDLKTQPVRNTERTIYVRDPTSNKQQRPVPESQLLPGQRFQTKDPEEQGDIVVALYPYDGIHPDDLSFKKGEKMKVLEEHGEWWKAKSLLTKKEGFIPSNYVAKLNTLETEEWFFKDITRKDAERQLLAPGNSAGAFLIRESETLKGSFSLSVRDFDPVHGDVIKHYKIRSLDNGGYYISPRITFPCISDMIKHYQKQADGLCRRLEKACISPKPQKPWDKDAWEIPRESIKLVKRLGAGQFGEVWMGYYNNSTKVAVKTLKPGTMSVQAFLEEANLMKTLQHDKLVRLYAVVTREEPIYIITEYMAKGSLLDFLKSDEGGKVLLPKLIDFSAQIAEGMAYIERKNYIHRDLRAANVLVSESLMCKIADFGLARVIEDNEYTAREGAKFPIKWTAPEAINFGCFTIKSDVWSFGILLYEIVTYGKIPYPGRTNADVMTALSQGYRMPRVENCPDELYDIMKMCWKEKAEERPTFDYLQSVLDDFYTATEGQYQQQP
Experiment [4] concerns the target Death-associated protein kinase 2 (Homo sapiens) (UniProt Q9UIK4). As to the kind of experiment: Inhibition of DAPK2 (unknown origin) assessed as residual activity at 100 nM by KINOMEscan analysis relative to control.
For experiment [5], the system named is Epidermal growth factor receptor (Homo sapiens), P00533 [G719C]. Kind of experiment: Inhibition of EGFR G719C mutant (unknown origin) assessed as residual activity at 100 nM by KINOMEscan analysis relative to control.
The test system of experiment [6] is Epidermal growth factor receptor (Homo sapiens), P00533 [UNDEFINED MUTATION]. As to the kind of experiment: Inhibition of EGFR E746-A750del mutant (unknown origin) assessed as residual activity at 100 nM by KINOMEscan analysis relative to control.
Experiment [7] has as its target Cyclin-dependent kinase 16 (Homo sapiens) (UniProt Q00536). Kind of experiment: Inhibition of PCTK1 (unknown origin) assessed as residual activity at 100 nM by KINOMEscan analysis relative to control.
In experiment [8] the target is T1, Dual specificity mitogen-activated protein kinase kinase 7 (Homo sapiens) (UniProt O14733).
T1 sequence (whole entry): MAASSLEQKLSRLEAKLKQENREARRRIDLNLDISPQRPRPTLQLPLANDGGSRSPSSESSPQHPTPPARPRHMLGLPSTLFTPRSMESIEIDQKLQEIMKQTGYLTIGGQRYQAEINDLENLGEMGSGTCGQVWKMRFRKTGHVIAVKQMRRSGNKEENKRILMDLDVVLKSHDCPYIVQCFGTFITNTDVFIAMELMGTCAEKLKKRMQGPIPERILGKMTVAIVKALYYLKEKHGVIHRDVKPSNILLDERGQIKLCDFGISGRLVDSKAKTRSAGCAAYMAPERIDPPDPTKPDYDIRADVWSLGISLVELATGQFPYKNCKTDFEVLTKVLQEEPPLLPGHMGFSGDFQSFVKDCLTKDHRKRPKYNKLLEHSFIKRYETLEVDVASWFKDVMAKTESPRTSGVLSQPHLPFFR
As to the kind of experiment: Inhibition of MKK7 (unknown origin) assessed as residual activity at 100 nM by KINOMEscan analysis relative to control.

Experiment [9] deals with T2, Serine/threonine-protein kinase DCLK3 (Homo sapiens) (UniProt Q9C098).
T2 sequence (whole entry): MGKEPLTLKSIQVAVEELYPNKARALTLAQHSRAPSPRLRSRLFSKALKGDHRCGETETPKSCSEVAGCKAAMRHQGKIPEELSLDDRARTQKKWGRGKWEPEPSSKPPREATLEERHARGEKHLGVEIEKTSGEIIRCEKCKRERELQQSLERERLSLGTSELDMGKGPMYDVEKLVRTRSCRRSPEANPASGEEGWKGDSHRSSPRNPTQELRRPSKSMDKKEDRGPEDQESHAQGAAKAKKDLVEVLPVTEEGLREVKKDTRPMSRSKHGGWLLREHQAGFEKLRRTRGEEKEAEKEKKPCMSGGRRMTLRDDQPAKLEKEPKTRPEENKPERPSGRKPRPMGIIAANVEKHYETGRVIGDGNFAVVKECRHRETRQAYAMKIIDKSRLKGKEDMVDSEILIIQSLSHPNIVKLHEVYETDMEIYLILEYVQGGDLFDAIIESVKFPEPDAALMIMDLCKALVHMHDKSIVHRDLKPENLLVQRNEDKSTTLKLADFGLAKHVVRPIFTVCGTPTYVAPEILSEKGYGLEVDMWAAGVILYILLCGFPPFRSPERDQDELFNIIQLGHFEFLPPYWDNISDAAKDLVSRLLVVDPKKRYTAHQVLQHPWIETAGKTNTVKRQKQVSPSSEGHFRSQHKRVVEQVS
As to the kind of experiment: Inhibition of DCAMKL3 (unknown origin) assessed as residual activity at 100 nM by KINOMEscan analysis relative to control.

For experiment [10], the target named is Serine/threonine-protein kinase Nek4 (Homo sapiens) (UniProt P51957). As to the kind of experiment: Inhibition of NEK4 (unknown origin) assessed as residual activity at 100 nM by KINOMEscan analysis relative to control.
Experiment [11] addresses Mitogen-activated protein kinase kinase kinase 11 (Homo sapiens) (UniProt Q16584). As to the kind of experiment: Inhibition of MLK3 (unknown origin) assessed as residual activity at 100 nM by KINOMEscan analysis relative to control.
Experiment [12] has as its target ALK tyrosine kinase receptor (Homo sapiens) (UniProt Q9UM73). As to the kind of experiment: Inhibition of ALK (unknown origin) assessed as residual activity at 100 nM by KINOMEscan analysis relative to control.
Experiment [13] deals with LIM domain kinase 2 (Homo sapiens) (UniProt P53671). Kind of experiment: Inhibition of LIMK2 (unknown origin) assessed as residual activity at 100 nM by KINOMEscan analysis relative to control.
LIM domain kinase 2 (Homo sapiens), sequence (P53671 whole entry, looked up, the tested form may be a part): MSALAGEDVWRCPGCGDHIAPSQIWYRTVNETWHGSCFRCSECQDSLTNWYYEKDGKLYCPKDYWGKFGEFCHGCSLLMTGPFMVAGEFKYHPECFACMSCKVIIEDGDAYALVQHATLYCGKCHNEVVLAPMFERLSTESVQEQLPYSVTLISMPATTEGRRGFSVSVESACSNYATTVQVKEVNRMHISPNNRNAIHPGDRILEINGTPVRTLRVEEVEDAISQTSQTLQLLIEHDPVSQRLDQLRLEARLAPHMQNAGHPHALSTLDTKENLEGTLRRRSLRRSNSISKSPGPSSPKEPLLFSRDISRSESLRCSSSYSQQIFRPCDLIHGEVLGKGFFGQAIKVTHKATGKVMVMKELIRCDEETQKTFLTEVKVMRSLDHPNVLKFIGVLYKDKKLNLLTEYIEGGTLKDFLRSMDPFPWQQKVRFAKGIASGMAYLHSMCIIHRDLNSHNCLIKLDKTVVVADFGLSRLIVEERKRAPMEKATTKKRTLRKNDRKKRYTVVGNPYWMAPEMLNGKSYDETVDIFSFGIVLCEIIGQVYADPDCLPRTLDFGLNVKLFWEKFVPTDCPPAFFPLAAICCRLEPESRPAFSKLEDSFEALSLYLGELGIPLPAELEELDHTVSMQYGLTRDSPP
In experiment [14] the test system is Tyrosine-protein kinase ABL1 (Homo sapiens), P00519 [Q252H]. Kind of experiment: Inhibition of nonphosphorylated ABL1 Q252H mutant (unknown origin) assessed as residual activity at 100 nM by KINOMEscan analysis relative to control.
Experiment [15] addresses T3, Non-receptor tyrosine-protein kinase TNK1 (Homo sapiens) (UniProt Q13470).
T3 sequence (whole entry): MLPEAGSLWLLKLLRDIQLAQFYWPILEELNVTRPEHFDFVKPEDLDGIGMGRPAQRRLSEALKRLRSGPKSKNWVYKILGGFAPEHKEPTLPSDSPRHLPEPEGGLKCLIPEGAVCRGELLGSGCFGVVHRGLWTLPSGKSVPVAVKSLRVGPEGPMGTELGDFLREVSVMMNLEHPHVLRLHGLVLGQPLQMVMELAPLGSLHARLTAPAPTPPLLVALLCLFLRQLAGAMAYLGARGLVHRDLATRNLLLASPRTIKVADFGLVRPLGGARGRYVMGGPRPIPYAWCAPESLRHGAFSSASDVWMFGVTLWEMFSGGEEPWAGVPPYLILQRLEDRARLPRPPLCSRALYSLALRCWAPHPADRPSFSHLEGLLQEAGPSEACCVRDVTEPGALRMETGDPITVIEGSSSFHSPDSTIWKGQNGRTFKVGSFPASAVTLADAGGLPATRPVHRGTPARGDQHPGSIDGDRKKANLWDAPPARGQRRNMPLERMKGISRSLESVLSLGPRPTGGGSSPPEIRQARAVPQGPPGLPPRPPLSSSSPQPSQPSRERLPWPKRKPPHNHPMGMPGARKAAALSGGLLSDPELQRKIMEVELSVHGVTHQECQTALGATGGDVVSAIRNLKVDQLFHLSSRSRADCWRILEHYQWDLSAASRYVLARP
Kind of experiment: Inhibition of TNK1 (unknown origin) assessed as residual activity at 100 nM by KINOMEscan analysis relative to control.

Death-associated protein kinase 2 (Homo sapiens), sequence (Q9UIK4 whole entry, looked up): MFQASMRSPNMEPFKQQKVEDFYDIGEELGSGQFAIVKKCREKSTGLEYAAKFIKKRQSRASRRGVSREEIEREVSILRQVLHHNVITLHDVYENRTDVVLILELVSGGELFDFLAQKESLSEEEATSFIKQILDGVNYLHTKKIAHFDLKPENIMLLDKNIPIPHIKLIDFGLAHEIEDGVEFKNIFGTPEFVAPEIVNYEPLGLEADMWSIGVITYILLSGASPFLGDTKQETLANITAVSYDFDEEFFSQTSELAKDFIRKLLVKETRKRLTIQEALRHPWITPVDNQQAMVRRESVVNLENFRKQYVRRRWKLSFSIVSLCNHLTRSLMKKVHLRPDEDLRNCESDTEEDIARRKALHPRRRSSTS
Mitogen-activated protein kinase kinase kinase 11 (Homo sapiens), sequence (Q16584 whole entry, looked up): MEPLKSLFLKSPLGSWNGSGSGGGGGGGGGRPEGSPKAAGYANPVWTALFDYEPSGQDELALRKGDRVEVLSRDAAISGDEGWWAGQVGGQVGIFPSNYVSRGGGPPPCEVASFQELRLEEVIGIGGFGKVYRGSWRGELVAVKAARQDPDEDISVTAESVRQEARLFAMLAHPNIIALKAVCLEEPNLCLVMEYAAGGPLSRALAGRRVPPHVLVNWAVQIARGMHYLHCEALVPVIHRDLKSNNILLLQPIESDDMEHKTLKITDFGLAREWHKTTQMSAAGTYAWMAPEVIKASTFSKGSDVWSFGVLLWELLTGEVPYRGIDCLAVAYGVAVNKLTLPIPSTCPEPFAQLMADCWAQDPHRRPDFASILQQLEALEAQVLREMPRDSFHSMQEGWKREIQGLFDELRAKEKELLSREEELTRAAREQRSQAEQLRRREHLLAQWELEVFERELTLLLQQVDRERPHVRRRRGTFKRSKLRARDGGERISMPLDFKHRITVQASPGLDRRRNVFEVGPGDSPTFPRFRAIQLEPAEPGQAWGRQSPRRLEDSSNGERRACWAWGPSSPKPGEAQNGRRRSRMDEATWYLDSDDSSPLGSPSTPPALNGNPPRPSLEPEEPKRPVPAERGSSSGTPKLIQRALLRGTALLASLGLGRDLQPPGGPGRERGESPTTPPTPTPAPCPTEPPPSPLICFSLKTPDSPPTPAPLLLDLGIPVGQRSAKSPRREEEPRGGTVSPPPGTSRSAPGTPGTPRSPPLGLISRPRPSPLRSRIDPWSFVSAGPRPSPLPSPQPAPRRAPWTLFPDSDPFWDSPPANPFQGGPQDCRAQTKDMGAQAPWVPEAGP
Cyclin-dependent kinase 16 (Homo sapiens), sequence (Q00536 whole entry): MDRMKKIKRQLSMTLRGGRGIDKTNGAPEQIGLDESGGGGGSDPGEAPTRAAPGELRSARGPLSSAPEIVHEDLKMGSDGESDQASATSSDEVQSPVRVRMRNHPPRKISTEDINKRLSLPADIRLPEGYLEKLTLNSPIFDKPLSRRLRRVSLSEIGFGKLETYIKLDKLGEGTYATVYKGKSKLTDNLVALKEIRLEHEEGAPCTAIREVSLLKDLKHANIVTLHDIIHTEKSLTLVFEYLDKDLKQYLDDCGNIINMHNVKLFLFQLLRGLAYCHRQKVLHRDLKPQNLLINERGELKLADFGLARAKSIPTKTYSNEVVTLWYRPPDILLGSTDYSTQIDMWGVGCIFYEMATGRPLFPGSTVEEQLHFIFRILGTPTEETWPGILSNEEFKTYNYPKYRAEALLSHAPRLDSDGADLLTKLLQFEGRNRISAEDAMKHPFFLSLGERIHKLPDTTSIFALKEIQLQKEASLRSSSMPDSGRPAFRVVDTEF
ALK tyrosine kinase receptor (Homo sapiens), sequence (Q9UM73 19-1620 limits assumed): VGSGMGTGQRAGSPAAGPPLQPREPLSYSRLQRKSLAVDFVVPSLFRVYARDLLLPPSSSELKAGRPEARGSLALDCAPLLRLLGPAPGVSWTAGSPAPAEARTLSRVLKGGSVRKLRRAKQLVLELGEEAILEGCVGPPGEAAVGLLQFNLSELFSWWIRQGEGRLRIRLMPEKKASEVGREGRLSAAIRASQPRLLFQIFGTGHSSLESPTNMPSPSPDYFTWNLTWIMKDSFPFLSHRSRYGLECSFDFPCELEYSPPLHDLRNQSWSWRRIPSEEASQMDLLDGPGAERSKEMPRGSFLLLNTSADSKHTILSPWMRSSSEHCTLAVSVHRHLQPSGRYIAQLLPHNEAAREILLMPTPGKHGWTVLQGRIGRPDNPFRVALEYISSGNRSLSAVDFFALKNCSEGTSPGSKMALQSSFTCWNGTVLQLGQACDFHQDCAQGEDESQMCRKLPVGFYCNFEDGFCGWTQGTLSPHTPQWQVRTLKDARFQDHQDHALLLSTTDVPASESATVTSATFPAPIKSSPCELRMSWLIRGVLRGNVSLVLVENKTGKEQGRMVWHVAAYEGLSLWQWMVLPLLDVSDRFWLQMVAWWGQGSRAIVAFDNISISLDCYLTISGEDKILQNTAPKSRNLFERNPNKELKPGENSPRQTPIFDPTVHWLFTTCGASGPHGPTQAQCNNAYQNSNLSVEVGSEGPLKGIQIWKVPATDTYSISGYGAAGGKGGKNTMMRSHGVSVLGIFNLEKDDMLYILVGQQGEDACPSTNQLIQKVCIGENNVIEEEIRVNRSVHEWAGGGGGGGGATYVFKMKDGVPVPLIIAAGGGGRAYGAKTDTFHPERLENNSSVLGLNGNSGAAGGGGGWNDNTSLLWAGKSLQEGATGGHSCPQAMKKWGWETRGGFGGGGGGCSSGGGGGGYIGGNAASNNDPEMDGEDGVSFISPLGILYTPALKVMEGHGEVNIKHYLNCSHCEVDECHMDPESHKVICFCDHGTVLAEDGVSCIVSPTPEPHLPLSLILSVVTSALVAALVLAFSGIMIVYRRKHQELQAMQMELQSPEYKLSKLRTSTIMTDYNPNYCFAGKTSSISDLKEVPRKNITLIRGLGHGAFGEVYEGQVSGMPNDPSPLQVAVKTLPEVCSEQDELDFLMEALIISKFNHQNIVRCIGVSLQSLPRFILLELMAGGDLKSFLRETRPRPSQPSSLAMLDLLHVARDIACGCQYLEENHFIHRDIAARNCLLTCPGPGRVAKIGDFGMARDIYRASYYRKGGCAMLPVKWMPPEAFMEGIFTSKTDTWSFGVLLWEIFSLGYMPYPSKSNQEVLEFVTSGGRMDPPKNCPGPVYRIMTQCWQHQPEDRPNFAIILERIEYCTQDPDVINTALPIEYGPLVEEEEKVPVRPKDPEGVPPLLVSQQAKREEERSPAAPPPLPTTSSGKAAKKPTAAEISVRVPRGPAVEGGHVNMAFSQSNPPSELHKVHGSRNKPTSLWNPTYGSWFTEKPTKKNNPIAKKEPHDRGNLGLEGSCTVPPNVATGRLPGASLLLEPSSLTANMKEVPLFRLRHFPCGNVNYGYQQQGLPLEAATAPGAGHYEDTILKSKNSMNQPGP

In the case of `COc1cc2nc(C)nc(N[C@H](C)c3cccc(-c4cn[nH]c4)c3)c2cc1OC`, the Activity in experiment [1] stood at 100%.
Turning to `COc1cc2ncnc(N[C@H](C)c3cccc4ccccc34)c2cc1OC`, the Activity in experiment [2] worked out at 92%; in experiment [3] it was 84%; in experiment [4], 100%; in [5], 89%; in [6], 88%; in experiment [7] it was 96%. The Activity in experiment [8] worked out at 77%; in [9], 84%; in experiment [10], 72%; in experiment [11], 100%; in [12] it was 87%; in experiment [13], 28%. In addition, the Activity turned out to be 100% in [14] and 86% in [15].
